Data from US6809200B2, “Process for the preparation of pyrazolo[4,3-d]pyrimidin-7-one compounds and intermediates thereof” (Pfizer Inc., priority 2000, dated 2004).

What was measured:
[1] = Dynamic Vapour Sorption (DVS) measurements; format: physicochemical
From the text: Dynamic Vapour Sorption (DVS) measurements were made for the compound of Example 12 by exposing a solid sample to controlled relative humidity (% RH) and weight change recorded with time on an automated water sorption analyser.

[2] = Preliminary analysis of hygroscopicity / hydration state; format: physicochemical; settings: solid compound

| Compound | weight lost on drying (sorption/desorption isotherm) ([1]; DVS, loss due to residual solvent or surface moisture) [%] | hygroscopicity ([1]; solid sample exposed to controlled relative humidity) | hygroscopicity (preliminary analysis) [2] |
| --- | --- | --- | --- |
| CCCCOc1ncc(C(C)=O)cc1-c1nc2c(CC)n(C3CN(CC)C3)nc2c(=O)[nH]1.O=S(=O)(O)c1ccccc1 [Example 12, 5-(5-Acetyl-2-butoxy-3-pyridinyl)-3-ethyl-2-(1-ethyl-3-azetidinyl)-2,6dihydro-7H-pyrazolo[4,3-d]pyrimidin-7-one benzenesulfonate] | 0.9 | non-hygroscopic | – |
| CCCCOc1ncc(C(C)=O)cc1-c1nc2c(CC)n(C3CN(CC)C3)nc2c(=O)[nH]1 [compound 1A, 5-(5-Acetyl-2-butoxy-3-pyridinyl)-3-ethyl-2-(1-ethyl-3-azetidinyl)-2,6-dihydro-7H-pyrazolo[4,3-d]pyrimidin-7-one] | – | – | anhydrous and non-hygroscopic |
